Laboratory results as given in the supplement of paper PMC10307832.

Legend:
Assay in all cases: relative viability (nuclei count vs DMSO), 5 days (fraction); higher = more cells survive
Pictilisib + Trametinib = compound: CS(=O)(=O)N1CCN(Cc2cc3nc(-c4cccc5[nH]ncc45)nc(N4CCOCC4)c3s2)CC1 [Pictilisib] + CC(=O)Nc1cccc(-n2c(=O)n(C3CC3)c(=O)c3c(Nc4ccc(I)cc4F)n(C)c(=O)c(C)c32)c1 [Trametinib] (partner 0.02 µM)
Procedure, shortened: (§1)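 After 5 days of treatment, lung cancer cells in 1536-well plates were fixed and stained in a single step (final 0.05% Triton X-100, 1% formaldehyde, 1 ug/ml Hoechst) and their nuclei counted on 4× images. Treatment had been applied by pin tool the day after seeding as one drug alone or as a fixed anchor-drug dose with five library-drug doses (not always all listed) in √10 steps. Relative viability is the nuclei count of treated wells divided by that of vehicle wells, and values are medians of duplicate plates.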

Pictilisib + Pemetrexed = compound: CS(=O)(=O)N1CCN(Cc2cc3nc(-c4cccc5[nH]ncc45)nc(N4CCOCC4)c3s2)CC1 [Pictilisib] + Nc1nc2[nH]cc(CCc3ccc(C(=O)N[C@@H](CCC(=O)O)C(=O)O)cc3)c2c(=O)[nH]1 [Pemetrexed] (partner 0.2 µM)
Procedure, shortened: as §1

MK-2206 + OSI-027 = compound: NC1(c2ccc(-c3nc4ccn5c(=O)[nH]nc5c4cc3-c3ccccc3)cc2)CCC1 [MK-2206] + COc1cccc2cc(-c3nc([C@H]4CC[C@H](C(=O)O)CC4)n4ncnc(N)c34)[nH]c12 [OSI-027] (partner 0.5 µM)
Procedure, shortened: as §1

MK-2206 + Phenformin = compound: NC1(c2ccc(-c3nc4ccn5c(=O)[nH]nc5c4cc3-c3ccccc3)cc2)CCC1 [MK-2206] + N=C(N)NC(=N)NCCc1ccccc1 [Phenformin] (partner 250 µM)
Procedure, shortened: as §1

Pictilisib + Lapatinib = compound: CS(=O)(=O)N1CCN(Cc2cc3nc(-c4cccc5[nH]ncc45)nc(N4CCOCC4)c3s2)CC1 [Pictilisib] + CS(=O)(=O)CCNCc1ccc(-c2ccc3ncnc(Nc4ccc(OCc5cccc(F)c5)c(Cl)c4)c3c2)o1 [Lapatinib] (partner 2 µM)
Procedure, shortened: as §1

Cell Line	relative viability (Pictilisib + Trametinib; first compound 0.02 µM)	relative viability (Pictilisib + Trametinib; first compound 0.06325 µM)	relative viability (Pictilisib + Trametinib; first compound 0.6325 µM)	relative viability (Pictilisib + Trametinib; first compound 2 µM)	relative viability (Pictilisib + Pemetrexed; first compound 0.02 µM)	relative viability (Pictilisib + Pemetrexed; first compound 0.06325 µM)	relative viability (Pictilisib + Pemetrexed; first compound 0.6325 µM)	relative viability (Pictilisib + Pemetrexed; first compound 2 µM)	relative viability (MK-2206 + OSI-027; first compound 0.01 µM)	relative viability (MK-2206 + OSI-027; first compound 0.03162 µM)	relative viability (MK-2206 + OSI-027; first compound 0.3162 µM)	relative viability (MK-2206 + OSI-027; first compound 1 µM)	relative viability (MK-2206 + Phenformin; first compound 0.01 µM)	relative viability (MK-2206 + Phenformin; first compound 0.03162 µM)	relative viability (MK-2206 + Phenformin; first compound 0.3162 µM)	relative viability (MK-2206 + Phenformin; first compound 1 µM)	relative viability (Pictilisib + Lapatinib; first compound 0.02 µM)	relative viability (Pictilisib + Lapatinib; first compound 0.06325 µM)	relative viability (Pictilisib + Lapatinib; first compound 0.6325 µM)	relative viability (Pictilisib + Lapatinib; first compound 2 µM)
ChaGo-K-1	0.813	0.873	0.79	0.631	0.265	0.268	0.231	0.237	0.575	0.631	0.477	0.463	0.524	0.488	0.46	0.497	–	–	–	–
NCI-H441	0.462	0.521	0.258	0.195	0.279	0.276	0.256	0.202	0.922	0.473	0.428	0.393	0.974	0.865	0.656	0.449	–	–	–	–
NCI-H2342	0.77	0.747	0.724	0.476	0.695	0.782	0.677	0.528	0.649	0.614	0.555	0.484	0.657	0.594	0.542	0.417	–	–	–	–
NCI-H1648	0.363	0.401	0.236	0.222	0.72	0.802	0.614	0.41	0.256	0.246	0.279	0.251	–	–	–	–	–	–	–	–
ABC-1	–	–	–	–	–	–	–	–	0.552	0.494	0.381	0.379	0.265	0.235	0.196	0.232	1.08	1.27	1.04	0.631
